Results from the NIST ThermoML archive (doi:10.1016/j.jct.2008.02.020).

Conditions: Liquid, Buoyancy - hydrostatic balance with magnetic suspension - one sinker

CCCCCCCCC [nonane]
Conditions	mass density [kg/m3]
233.15 K, 101.46 kPa	763.962
233.15 K, 1176.1 kPa	764.563
233.15 K, 2178.2 kPa	765.126
233.15 K, 4167 kPa	766.231
233.15 K, 5936.5 kPa	767.203
233.15 K, 8144.5 kPa	768.395
233.15 K, 10066 kPa	769.42
233.15 K, 12148 kPa	770.516
233.15 K, 14076 kPa	771.516
233.15 K, 16087 kPa	772.548
233.15 K, 18067 kPa	773.551
233.15 K, 19984 kPa	774.511
233.15 K, 21990 kPa	775.502
233.15 K, 24044 kPa	776.506
233.15 K, 25990 kPa	777.446
233.15 K, 27927 kPa	778.373
233.15 K, 29906 kPa	779.308
253.15 K, 101.82 kPa	748.678
253.15 K, 1135.3 kPa	749.335
253.15 K, 2178.6 kPa	749.992
253.15 K, 3967.8 kPa	751.107
253.15 K, 6147.5 kPa	752.446
253.15 K, 8138 kPa	753.648
253.15 K, 10112 kPa	754.82
253.15 K, 12111 kPa	755.991
253.15 K, 14130 kPa	757.156
253.15 K, 16140 kPa	758.299
253.15 K, 18106 kPa	759.398
253.15 K, 20064 kPa	760.484
253.15 K, 22026 kPa	761.552
253.15 K, 23955 kPa	762.59
253.15 K, 25972 kPa	763.661
253.15 K, 27913 kPa	764.677
253.15 K, 29967 kPa	765.739
273.15 K, 102.52 kPa	733.389
273.15 K, 1156.8 kPa	734.143
273.15 K, 2138 kPa	734.842
273.15 K, 4026 kPa	736.166
273.15 K, 6169.4 kPa	737.644
273.15 K, 8161.4 kPa	738.99
273.15 K, 10122 kPa	740.29
273.15 K, 12106 kPa	741.586
273.15 K, 14101 kPa	742.864
273.15 K, 16067 kPa	744.108
273.15 K, 18074 kPa	745.354
273.15 K, 20036 kPa	746.555
273.15 K, 22000 kPa	747.737
273.15 K, 23996 kPa	748.923
273.15 K, 25994 kPa	750.093
273.15 K, 27982 kPa	751.238
273.15 K, 29876 kPa	752.316
293.15 K, 101.69 kPa	717.968
293.15 K, 1184.3 kPa	718.847
293.15 K, 2129.2 kPa	719.604
293.15 K, 3960.5 kPa	721.055
293.15 K, 6115.4 kPa	722.729
293.15 K, 7981.6 kPa	724.145
293.15 K, 10015 kPa	725.663
293.15 K, 12149 kPa	727.214
293.15 K, 13981 kPa	728.526
293.15 K, 16170 kPa	730.062
293.15 K, 17943 kPa	731.285
293.15 K, 20200 kPa	732.813
293.15 K, 22156 kPa	734.115
293.15 K, 24158 kPa	735.421
293.15 K, 26136 kPa	736.696
293.15 K, 28126 kPa	737.958
293.15 K, 29978 kPa	739.115
313.15 K, 98.73 kPa	702.339
313.15 K, 1168.7 kPa	703.323
313.15 K, 2131.9 kPa	704.205
313.15 K, 3967.4 kPa	705.852
313.15 K, 6162.3 kPa	707.777
313.15 K, 8113.9 kPa	709.449
313.15 K, 10024 kPa	711.038
313.15 K, 12173 kPa	712.791
313.15 K, 14170 kPa	714.384
313.15 K, 16194 kPa	715.964
313.15 K, 17956 kPa	717.315
313.15 K, 20057 kPa	718.889
313.15 K, 22191 kPa	720.459
313.15 K, 24136 kPa	721.862
313.15 K, 26139 kPa	723.282
313.15 K, 28073 kPa	724.629
313.15 K, 29972 kPa	725.932
333.15 K, 102.84 kPa	686.431
333.15 K, 1137.5 kPa	687.521
333.15 K, 2113.9 kPa	688.539
333.15 K, 4162.7 kPa	690.632
333.15 K, 6145.3 kPa	692.599
333.15 K, 8151.9 kPa	694.535
333.15 K, 10024 kPa	696.296
333.15 K, 12114 kPa	698.208
333.15 K, 14127 kPa	700.005
333.15 K, 15989 kPa	701.627
333.15 K, 18027 kPa	703.362
333.15 K, 19954 kPa	704.977
333.15 K, 22112 kPa	706.723
333.15 K, 24080 kPa	708.292
333.15 K, 26038 kPa	709.821
333.15 K, 28054 kPa	711.366
333.15 K, 29912 kPa	712.772
353.15 K, 97.13 kPa	671.217
353.15 K, 2136.7 kPa	672.617
353.15 K, 6141.9 kPa	677.222
353.15 K, 8110.9 kPa	679.378
353.15 K, 10054 kPa	681.439
353.15 K, 12124 kPa	683.57
353.15 K, 14144 kPa	685.589
353.15 K, 15989 kPa	687.385
353.15 K, 18011 kPa	689.305
353.15 K, 20036 kPa	691.174
353.15 K, 21991 kPa	692.938
353.15 K, 23965 kPa	694.678
353.15 K, 25968 kPa	696.403
353.15 K, 27955 kPa	698.078
353.15 K, 29939 kPa	699.718
373.15 K, 102.37 kPa	653.427
373.15 K, 1227.9 kPa	655.018
373.15 K, 2148.9 kPa	656.298
373.15 K, 4131.5 kPa	658.968
373.15 K, 6127 kPa	661.551
373.15 K, 8138.8 kPa	664.058
373.15 K, 10022 kPa	666.323
373.15 K, 12112 kPa	668.749
373.15 K, 14119 kPa	671.003
373.15 K, 16134 kPa	673.197
373.15 K, 18104 kPa	675.276
373.15 K, 20078 kPa	677.302
373.15 K, 22064 kPa	679.286
373.15 K, 23988 kPa	681.158
373.15 K, 26124 kPa	683.184
373.15 K, 28010 kPa	684.93
373.15 K, 29905 kPa	686.647
